Publication PMC11650737, “Developing MYC Degraders Bearing the Von Hippel–Lindau Ligand to Target the “Undruggable” MYC” (ACS Pharmacology & Translational Science, 2024)
Where “and” joins values, the source holds several entries; their conditions need not be identical. Equal entries are not always repeated.

Tests used:
[1] = Pharmacokinetic study in mice; format: in vivo, mice (male C57BL/6J); settings: for adverse effects during the study / level in blood circulation 24 h after treatment / AUCs: i.p.; for adverse effects during the study: 10 mg/kg single dose; for level in blood circulation 24 h after treatment / AUCs / concentration at 8 h / Cmax / Tmax / half-life: 10 mg/kg; for AUCs / Cmax / Tmax: blood; for concentration at 8 h / Cmax / Tmax / half-life: male, C57BL/6J, mouse, whole blood; for concentration at 8 h: read-out: average blood concentration 8 h after administration; for half-life: noncompartmental analysis, read-out: T ½ (converted)
Experimental: In order to assess the efficacy potential of MYC degraders in animal models, pharmacokinetic studies were carried out in mice (Figure 6A,B). Following intraperitoneal (i.p.) administration of selected compounds, CSI86, CSI135, and CSI107 at 10 mg/kg, blood samples were collected at different time points until 24 h post-drug administration, and concentrations were determined via LC-MS/MS.
Animals that were used for the study were male C57BL/6J (n = 7) at the age of 6–8 weeks (average weight = 20–25 g). Each PROTAC was administered at 10 mg/kg, and the dosing volume per animal was 200 μL. The vehicle for CSI86, CSI107, and […], respectively, was corn oil/10% DMSO, and the administration was i.p. CSI86 was also administered PO at the same dose using 0.5% carboxymethyl cellulose (CMC) as a vehicle in water. Whole blood from two control mice was used for the preparation of standard solutions.
A serial tail bleeding protocol was performed for the collection of blood samples. Blood samples (10 μL) were collected at selected time points (15 min, 30 min, 1 h, 2 h, 4 h, 6 h, 8 h, and 24 h) in tubes containing 40 μL of sodium citrate (0.1 M, pH 4.5) and stored at −80 °C until the day of the analysis.
For the calculation of T1/2, a noncompartmental pharmacokinetics analysis was used via the online application “Dash App Gallery Pharmacokinetics Calculator.” […]
Characterization and Quantitative Analysis of PROTACs by Liquid Chromatography-Mass Spectrometry […]
For detection and quantification of the PROTACs in medium and biological samples, LC-MS/MS methodologies were developed. Mass spectrometry was performed on a Triple Quad 5500 + LC-MS/MS system fitted with a TurboIonSpray source and a hybrid triple quadrupole/linear ion trap mass spectrometer. HPLC was performed using an Exion LC AB Sciex system with a temperature-controlled column compartment and an autosampler. A C8 column (SunFire 2.1 x 50 mm, 3.5 μm) (Waters, MA, USA) was used at a flow rate of 0.3 mL/min for the separation of the analytes of interest. The mobile phase consisted of A: 10% ACN, 90% water, 2 mM ammonium acetate, and 0.1% FA and B: 90% ACN, 10% water, 2 mM ammonium acetate, and 0.1% FA, the injection volume was 10 μL. Elution of CSI86 PROTAC was achieved by a gradient of solvent A – solvent B described as follows: 100% A (0.0 - 0.5 min), 20% A (1.0 – […]
3.0 min), 100% A (3.1 – 5.1 min).
1040.5, for the CSI86 PROTAC with exact mass of 1039 (g/mol). Elution of CSI107 PROTAC was achieved by a gradient of solvent A – solvent B described as follows: 80% A (0.0 - 0.5 min), 15% A (1.5 – 3.5 min), […]
the CSI107 PROTAC with an exact mass of 1053 (g/mol).
Table S1: Optimized parameters for the LC-MS/MS analysis. […]
Detection protein degraders in mouse blood by LC-MS/MS analysis
For the LC-MS/MS analysis of the PK study, sample preparation was performed as follows.
Double Blank Blank + IS Standards
50 μL blood 50 μL blood 50 μL blood
10 μL ACN: H 2O 10 μL ACN: H 2O 10 μL std
300 μL of cold ACN were added in all samples for protein precipitation, followed by centrifugation at 13000 rpm for 10 min. The supernatant was transferred in glass tubes and evaporated at 55 °C for approximately 1 h. The samples were reconstituted in Mobile Phase A (90% H2O-10% ACN, 0.1% FA, 2 mM ammonium acetate) and the circulating amount of PROTAC was determined by LC-MS/MS analysis using a stable internal standard such as Warfarin or BETd-260 respectively. Gradient (20% A – 80% B) LC-MS/MS conditions were applied and the concentration range for the standard curve was 1 - 10.000 ng/mL. […]

[2] = test system: PC3 cells; test: Cell viability (MTT) assay, PC3; format: cell-based, human; settings: Homo sapiens, PC-3, 72 h, read-out: IC50 (antiproliferative effect)
Experimental: The antiproliferative activity of the synthesized compounds was tested in cell viability assays optimally set up for various cancer cell lines (results are depicted in Table 2, n = 3, average IC50 (μM) ± SD).
Cells were plated at a density of 5 × 10^3 cells per well on 96-well plates. After 24 h of incubation (37 °C, 5% CO2), the cell medium was removed, and compounds were added at selected concentrations (0.1–100 μM), followed by incubation for 72 h. Control cells were treated with 0.4% DMSO medium to match the conditions in the wells where drugs were added. After 72 h, the medium was removed, and the 3-(4,5-dimethylthiazol-2-yl)-2,5-diphenyltetrazolium bromide (MTT) solution (0.3 mg/mL in PBS) was added to cells for 3 h under no light conditions. The MTT solution was removed, and the formazan crystals were dissolved in 100 μL of DMSO. The optical density was measured at 570 nm with a reference wavelength of 690 nm using an absorbance microplate reader (SpectraMax 190, Molecular Devices, Sunnyvale, CA, USA). The half-maximal inhibitory concentration (IC50) was calculated based on a four-parameter logistic equation, generating a cell viability curve, using GraphPad Prism 6.01 (GraphPad Software, Inc.). Two concentrations of an established drug, Docetaxel (100 nM and 1 nM), were used in each experiment as a positive control. The resulting absorbance values were used instead of IC50 calculation. Each point was the result of three independent experiments performed in triplicate.

Row | AUCs [1] | concentration at 8 h ([1]; ip) | Cmax ([1]; ip) | Tmax ([1]; ip) | half-life ([1]; ip) | Cmax ([1]; oral gavage (PO)) | IC50 [2] | SMILES | adverse effects during the study [1] | level in blood circulation 24 h after treatment [1]
1 | 8,4 h x μg/mL | ~500 ng/mL and ~480 nM | 713 ng/mL and 686 nM | 2 h | 7.4 h | < 100 ng/mL | 18 ± 7 µM | Cc1ncsc1-c1ccc(CNC(=O)[C@@H]2C[C@@H](O)CN2C(=O)[C@@H](NC(=O)CCC(=O)NCCCOc2ccc(-c3cc(C(F)(F)F)nn3C)c(O)c2-c2cc(C(F)(F)F)cc(C(F)(F)F)c2)C(C)(C)C)cc1 [CSI86] | no adverse effects were reported | evident levels of the degrader being present in blood circulation
2 | 3,4 h x μg/mL | ~150 ng/mL and ~140 nM | 413 ng/mL and 392 nM | 2 h | 5 ± 0.5 h | – | 13 ± 7 µM | Cc1ncsc1-c1ccc(CNC(=O)[C@@H]2C[C@@H](O)CN2C(=O)[C@@H](NC(=O)CCCC(=O)NCCCOc2ccc(-c3cc(C(F)(F)F)nn3C)c(O)c2-c2cc(C(F)(F)F)cc(C(F)(F)F)c2)C(C)(C)C)cc1 [CSI107] | no adverse effects were reported | evident levels of the degrader being present in blood circulation
3 | 6 h x μg/mL | – | 699 ng/mL and 636 nM | 2 h | 7.6 h | – | 25 ± 2 µM | Cc1ncsc1-c1ccc(CNC(=O)[C@@H]2C[C@@H](O)CN2C(=O)[C@@H](NC(=O)COCCOCC(=O)NCCCOc2ccc(-c3cc(C(F)(F)F)nn3C)c(O)c2-c2cc(C(F)(F)F)cc(C(F)(F)F)c2)C(C)(C)C)cc1 [CSI135] | no adverse effects were reported | evident levels of the degrader being present in blood circulation
